≈ marks a conversion by molar mass, not a printed value. Positions of bridges follow the written chain, without caps; N, C: chain ends. Non-standard residues stand in square brackets, D forms with d. Residues, ends and D or L forms follow the SMILES beside them. *: point of attachment. X1 = CC[C@H](C)CCCCC(=O)*; Dab = NCC[C@H](N)C(=O)O
Key:
Assay type in all cases: functional
Settings in all cases: time 16-24 hrs
Escherichia coli = assay: Antibacterial activity against Escherichia coli AB1157 incubated for 16 to 24 hrs by broth microdilution assay
Pseudomonas aeruginosa = assay: Antibacterial activity against Pseudomonas aeruginosa PAO1 incubated for 16 to 24 hrs by broth microdilution assay
Enterococcus faecium [1] = assay: Antibacterial activity against vancomycin-resistant Enterococcus faecium Efm-HS-08257 harboring VanM phenotype incubated for 16 to 24 hrs by broth microdilution assay
Acinetobacter baumannii [2] = assay: Antibacterial activity against Acinetobacter baumannii ATCC19606 incubated for 16 to 24 hrs by broth microdilution assay
Enterococcus faecium [3] = assay: Antibacterial activity against vancomycin-resistant Enterococcus faecium Efm-HS-0649 harboring VanA phenotype incubated for 16 to 24 hrs by broth microdilution assay
Enterococcus faecium [4] = assay: Antibacterial activity against vancomycin-resistant Enterococcus faecium Efm-HS-vb01 harboring VanB phenotype incubated for 16 to 24 hrs by broth microdilution assay
Klebsiella pneumoniae = assay: Antibacterial activity against Klebsiella pneumoniae KP-1 incubated for 16 to 24 hrs by broth microdilution assay
Enterococcus faecium [5] = assay: Antibacterial activity against vancomycin-resistant Enterococcus faecium Efm-HS-vb02 harboring VanB phenotype incubated for 16 to 24 hrs by broth microdilution assay
Staphylococcus aureus [6] = assay: Antibacterial activity against methicillin-resistant Staphylococcus aureus USA300 LAC incubated for 16 to 24 hrs by broth microdilution assay
Staphylococcus aureus [7] = assay: Antibacterial activity against vancomycin-intermediate Staphylococcus aureus Mu50 incubated for 16 to 24 hrs by broth microdilution assay
Acinetobacter baumannii [8] = assay: Antibacterial activity against carbapenem-resistant Acinetobacter baumannii CRAB-1 clinical isolate incubated for 16 to 24 hrs by broth microdilution assay

Row | Structure (SMILES) | MIC (Escherichia coli) | MIC (Pseudomonas aeruginosa) | MIC (Enterococcus faecium [1]) | MIC (Acinetobacter baumannii [2]) | MIC (Enterococcus faecium [3]) | MIC (Enterococcus faecium [4]) | MIC (Klebsiella pneumoniae) | MIC (Enterococcus faecium [5]) | MIC (Staphylococcus aureus [6]) | MIC (Staphylococcus aureus [7]) | MIC (Acinetobacter baumannii [8])
1 | CN[C@H](CC(C)C)C(=O)N[C@H]1C(=O)N[C@@H](CC(N)=O)C(=O)N[C@H]2C(=O)N[C@H]3C(=O)N[C@H](C(=O)N[C@H](C(=O)O)c4cc(O)c(CNCCC[S+](C)CC(O)COc5ccccc5)c(O)c4-c4cc3ccc4O)[C@H](O)c3ccc(c(Cl)c3)Oc3cc2cc(c3O[C@@H]2O[C@H](CO)[C@@H](O)[C@H](O)[C@H]2O[C@H]2C[C@](C)(N)[C@H](O)[C@H](C)O2)Oc2ccc(cc2Cl)[C@H]1O.O=C([O-])C(F)(F)F (some centres not stated) | 32 µg/mL | > 128 µg/mL | 64 µg/mL | 128 µg/mL | 128 µg/mL | 2 µg/mL | > 128 µg/mL | 4 µg/mL | 0.5 µg/mL | 4 µg/mL | 128 µg/mL
2 | CN[C@H](CC(C)C)C(=O)N[C@H]1C(=O)N[C@@H](CC(N)=O)C(=O)N[C@H]2C(=O)N[C@H]3C(=O)N[C@H](C(=O)N[C@H](C(=O)NCCC[S+](C)CC(O)COc4ccc(Cl)cc4)c4cc(O)cc(O)c4-c4cc3ccc4O)[C@H](O)c3ccc(c(Cl)c3)Oc3cc2cc(c3O[C@@H]2O[C@H](CO)[C@@H](O)[C@H](O)[C@H]2O[C@H]2C[C@](C)(N)[C@H](O)[C@H](C)O2)Oc2ccc(cc2Cl)[C@H]1O.O=C([O-])C(F)(F)F (some centres not stated) | 16 µg/mL | 128 µg/mL | 8 µg/mL | 32 µg/mL | 16 µg/mL | 8 µg/mL | > 128 µg/mL | 4 µg/mL | ≤ 0.063 µg/mL | 1 µg/mL | 128 µg/mL
3 | CC(C)C[C@H](C(=O)N[C@H]1C(=O)N[C@@H](CC(N)=O)C(=O)N[C@H]2C(=O)N[C@H]3C(=O)N[C@H](C(=O)N[C@H](C(=O)O)c4cc(O)cc(O)c4-c4cc3ccc4O)[C@H](O)c3ccc(c(Cl)c3)Oc3cc2cc(c3O[C@@H]2O[C@H](CO)[C@@H](O)[C@H](O)[C@H]2O[C@H]2C[C@](C)(N)[C@H](O)[C@H](C)O2)Oc2ccc(cc2Cl)[C@H]1O)N(C)CCC[S+](C)C[C@@H](O)COc1ccccc1.O=C([O-])C(F)(F)F (some centres not stated) | > 128 µg/mL | > 128 µg/mL | 128 µg/mL | > 128 µg/mL | > 128 µg/mL | 64 µg/mL | > 128 µg/mL | 32 µg/mL | 1 µg/mL | 8 µg/mL | > 128 µg/mL
4 | CN[C@H](CC(C)C)C(=O)N[C@H]1C(=O)N[C@@H](CC(N)=O)C(=O)N[C@H]2C(=O)N[C@H]3C(=O)N[C@H](C(=O)N[C@H](C(=O)NCCC[S+](C)CC(O)COc4ccc(-c5ccc(C(F)(F)F)cc5)cc4)c4cc(O)cc(O)c4-c4cc3ccc4O)[C@H](O)c3ccc(c(Cl)c3)Oc3cc2cc(c3O[C@@H]2O[C@H](CO)[C@@H](O)[C@H](O)[C@H]2O[C@H]2C[C@](C)(N)[C@H](O)[C@H](C)O2)Oc2ccc(cc2Cl)[C@H]1O.O=C([O-])C(F)(F)F (some centres not stated) | 16 µg/mL | > 128 µg/mL | 1 µg/mL | 32 µg/mL | 2 µg/mL | 4 µg/mL | > 128 µg/mL | 0.5 µg/mL | 0.5 µg/mL | 0.25 µg/mL | 128 µg/mL
5 | CN[C@H](CC(C)C)C(=O)N[C@H]1C(=O)N[C@@H](CC(N)=O)C(=O)N[C@H]2C(=O)N[C@H]3C(=O)N[C@H](C(=O)N[C@H](C(=O)NCCC[S+](C)CC(O)CCc4ccccc4)c4cc(O)cc(O)c4-c4cc3ccc4O)[C@H](O)c3ccc(c(Cl)c3)Oc3cc2cc(c3O[C@@H]2O[C@H](CO)[C@@H](O)[C@H](O)[C@H]2O[C@H]2C[C@](C)(N)[C@H](O)[C@H](C)O2)Oc2ccc(cc2Cl)[C@H]1O.O=C([O-])C(F)(F)F (some centres not stated) | 32 µg/mL | 128 µg/mL | 32 µg/mL | > 128 µg/mL | 32 µg/mL | 32 µg/mL | > 128 µg/mL | 2 µg/mL | 0.5 µg/mL | 2 µg/mL | > 128 µg/mL
6 | CN[C@H](CC(C)C)C(=O)N[C@H]1C(=O)N[C@@H](CC(N)=O)C(=O)N[C@H]2C(=O)N[C@H]3C(=O)N[C@H](C(=O)N[C@H](C(=O)NCCC[S+](C)CC(O)COc4ccc(Br)cc4)c4cc(O)cc(O)c4-c4cc3ccc4O)[C@H](O)c3ccc(c(Cl)c3)Oc3cc2cc(c3O[C@@H]2O[C@H](CO)[C@@H](O)[C@H](O)[C@H]2O[C@H]2C[C@](C)(N)[C@H](O)[C@H](C)O2)Oc2ccc(cc2Cl)[C@H]1O.O=C([O-])C(F)(F)F (some centres not stated) | 16 µg/mL | 128 µg/mL | 4 µg/mL | 32 µg/mL | 8 µg/mL | 4 µg/mL | > 128 µg/mL | 4 µg/mL | ≤ 0.063 µg/mL | 1 µg/mL | 64 µg/mL
7 | CN[C@H](CC(C)C)C(=O)N[C@H]1C(=O)N[C@@H](CC(N)=O)C(=O)N[C@H]2C(=O)N[C@H]3C(=O)N[C@H](C(=O)N[C@H](C(=O)O)c4cc(O)c(CNCCC[S+](C)CC(O)COc5ccc(-c6ccccc6)cc5)c(O)c4-c4cc3ccc4O)[C@H](O)c3ccc(c(Cl)c3)Oc3cc2cc(c3O[C@@H]2O[C@H](CO)[C@@H](O)[C@H](O)[C@H]2O[C@H]2C[C@](C)(N)[C@H](O)[C@H](C)O2)Oc2ccc(cc2Cl)[C@H]1O.O=C([O-])C(F)(F)F (some centres not stated) | 16 µg/mL | > 128 µg/mL | 4 µg/mL | 16 µg/mL | 4 µg/mL | ≤ 0.063 µg/mL | > 128 µg/mL | ≤ 0.063 µg/mL | ≤ 0.063 µg/mL | ≤ 0.063 µg/mL | 32 µg/mL
8 | C[C@@H](O)[C@H]1C(=O)N2C(C(=O)O)=C(S[C@@H]3CN[C@H](C(=O)N(C)C)C3)[C@H](C)[C@H]12 [MEROPENEM] | – | – | – | 2 µg/mL (≈ 5.22 µM) | – | – | – | – | – | – | > 128 µg/mL
9 | CN[C@H](CC(C)C)C(=O)N[C@H]1C(=O)N[C@@H](CC(N)=O)C(=O)N[C@H]2C(=O)N[C@H]3C(=O)N[C@H](C(=O)N[C@H](C(=O)NCCC[S+](C)CC(O)COc4ccc(C(C)(C)C)cc4)c4cc(O)cc(O)c4-c4cc3ccc4O)[C@H](O)c3ccc(c(Cl)c3)Oc3cc2cc(c3O[C@@H]2O[C@H](CO)[C@@H](O)[C@H](O)[C@H]2O[C@H]2C[C@](C)(N)[C@H](O)[C@H](C)O2)Oc2ccc(cc2Cl)[C@H]1O.O=C([O-])C(F)(F)F (some centres not stated) | 32 µg/mL | > 128 µg/mL | 8 µg/mL | 32 µg/mL | 32 µg/mL | 16 µg/mL | > 128 µg/mL | 4 µg/mL | ≤ 0.063 µg/mL | 1 µg/mL | 64 µg/mL
10 | CC(C)CCCCC(=O)N[C@@H](CCN)C(=O)N[C@H](C(=O)N[C@@H](CCN)C(=O)N[C@H]1CCNC(=O)[C@H]([C@@H](C)O)NC(=O)[C@H](CCN)NC(=O)[C@H](CCN)NC(=O)[C@H](CC(C)C)NC(=O)[C@@H](Cc2ccccc2)NC(=O)[C@H](CCN)NC1=O)[C@@H](C)O.CC[C@H](C)CCCCC(=O)N[C@@H](CCN)C(=O)N[C@H](C(=O)N[C@@H](CCN)C(=O)N[C@H]1CCNC(=O)[C@H]([C@@H](C)O)NC(=O)[C@H](CCN)NC(=O)[C@H](CCN)NC(=O)[C@H](CC(C)C)NC(=O)[C@@H](Cc2ccccc2)NC(=O)[C@H](CCN)NC1=O)[C@@H](C)O (X1-[Dab]T[Dab][Dab][Dab][dF]L[Dab][Dab]T; lactam 4-C) | 0.125 µg/mL | 0.5 µg/mL | – | 0.125 µg/mL | – | – | ≤ 0.063 µg/mL | – | – | – | 0.125 µg/mL
11 | CN[C@H](CC(C)C)C(=O)N[C@H]1C(=O)N[C@@H](CC(N)=O)C(=O)N[C@H]2C(=O)N[C@H]3C(=O)N[C@H](C(=O)N[C@H](C(=O)NCCC[S+](C)CC(O)COc4ccc(-c5ccccc5)cc4)c4cc(O)cc(O)c4-c4cc3ccc4O)[C@H](O)c3ccc(c(Cl)c3)Oc3cc2cc(c3O[C@@H]2O[C@H](CO)[C@@H](O)[C@H](O)[C@H]2O[C@H]2C[C@](C)(N)[C@H](O)[C@H](C)O2)Oc2ccc(cc2Cl)[C@H]1O.O=C([O-])C(F)(F)F (some centres not stated) | 16 µg/mL | > 128 µg/mL | 4 µg/mL | 32 µg/mL | 8 µg/mL | 4 µg/mL | > 128 µg/mL | 1 µg/mL | ≤ 0.063 µg/mL | 0.5 µg/mL | 128 µg/mL
12 | CC(=O)NC[C@H]1CN(c2ccc(N3CCOCC3)c(F)c2)C(=O)O1 [LINEZOLID] | 128 µg/mL (≈ 379 µM) | 128 µg/mL (≈ 379 µM) | 2 µg/mL (≈ 5.93 µM) | 128 µg/mL (≈ 379 µM) | 1 µg/mL (≈ 2.96 µM) | 2 µg/mL (≈ 5.93 µM) | > 128 µg/mL | 2 µg/mL (≈ 5.93 µM) | 1 µg/mL (≈ 2.96 µM) | – | 128 µg/mL (≈ 379 µM)
13 | CCCCCCCCCC(=O)N[C@@H](Cc1c[nH]c2ccccc12)C(=O)N[C@@H](CC(N)=O)C(=O)N[C@@H](CC(=O)O)C(=O)N[C@@H]1C(=O)NCC(=O)N[C@@H](CCCN)C(=O)N[C@@H](CC(=O)O)C(=O)N[C@H](C)C(=O)N[C@@H](CC(=O)O)C(=O)NCC(=O)N[C@H](CO)C(=O)N[C@@H]([C@@H](C)CC(=O)O)C(=O)N[C@@H](CC(=O)c2ccccc2N)C(=O)O[C@@H]1C | – | – | 8 µg/mL (≈ 4.94 µM) | – | 8 µg/mL (≈ 4.94 µM) | 8 µg/mL (≈ 4.94 µM) | – | 4 µg/mL (≈ 2.47 µM) | 1 µg/mL (≈ 0.617 µM) | 4 µg/mL (≈ 2.47 µM) | –
